Tests used:
[1] = system: α-Glucosidase from Saccharomyces cerevisiae; experiment: α-glucosidase inhibition assay (pNPG substrate); type: biochemical; conditions: for % inhibition R1: replicate 1; for % inhibition R3: replicate 3; for % Inhibition: fixed concentration of 100 µM, mean of triplicate (± SD); for Observation (activity level, Table S9) / Observation (inhibition level, Table S7): words, based on % inhibition at 100 µM; for IC50: dose-response, mean ± SD
Experimental: The α-glucosidase inhibitory activity of 4a–j was evaluated using a standard enzymatic assay. α-Glucosidase from Saccharomyces cerevisiae was employed as the enzyme source, and p-nitrophenyl-α-D-glucopyranoside (pNPG) served as the substrate. The assay was conducted in a 96-well microplate format at 37 °C in 50 mM phosphate buffer (pH 6.8). Briefly, 10 µL of the test compound (dissolved in DMSO) at various concentrations was mixed with 20 µL of the enzyme solution (1 U/mL) and 50 µL of phosphate buffer. The reaction was initiated by adding 20 µL of pNPG (5 mM), and the mixture was incubated for 30 min. The reaction was terminated by adding 50 µL of 0.1 M Na2CO3, and the absorbance of the released p-nitrophenol was measured at […] using a microplate reader. […] All experiments were performed in triplicate, and the results were expressed as mean ± standard deviation (SD). Statistical significance was evaluated using one-way ANOVA followed by Tukey’s post hoc test.

α-glucosidase = molecular target: α-glucosidase; parameters: method as in PMID 26398141; conditions: cited from earlier work

Row | % inhibition R1 ([1]; 100 µM) [%] | % inhibition R3 ([1]; 100 µM) [%] | % Inhibition [1] [%] | Observation (activity level, Table S9) [1] | Observation (inhibition level, Table S7) [1] | % Inhibition ([1]; 100 µM) [%] | IC50 [1] [µM] | SMILES | IC50 (α-glucosidase) [µM]
1 | 34.129 | 27.265 |  | Low activity | Low inhibition | 25.37 |  | COc1ccc2[nH]c(C(=O)N/N=C/c3cccnc3)cc2c1 [4b, (E)-5-Methoxy-N’-(pyridin-3-ylmethylene)-1H-indole-2-carbohydrazide] | 
2 | 39.907 | 37.768 | 32.51 ± 8.99 | Moderate activity | Moderate inhibition |  |  | COc1ccc2[nH]c(C(=O)N/N=C/c3ccc(O)cc3)cc2c1 [4c, (E)-N’-(4-Hydroxybenzylidene)-5-methoxy-1H-indole-2-carbohydrazide] | 
3 | 92.817 | 90.041 | 91.06 ± 1.25 | High activity | High inhibition |  | 10.89 ± 0.08 | COc1ccc2[nH]c(C(=O)N/N=C/c3cccc(Br)c3)cc2c1 [4g, (E)-N’-(3-Bromobenzylidene)-5-methoxy-1H-indole-2-carbohydrazide] | 
4 | 56.471 | 49.039 | 53.23 ± 3.11 | Moderate activity | Moderate inhibition |  |  | COc1ccc2[nH]c(C(=O)N/N=C/c3ccccc3)cc2c1 [4j, (E)-N’-Benzylidene-5-methoxy-1H-indole-2-carbohydrazide] | 

Further lines, the compound ahead of its results:

Row | SMILES | % inhibition R1 ([1]; 100 µM) [%] | % inhibition R3 ([1]; 100 µM) [%] | % Inhibition [1] [%] | Observation (activity level, Table S9) [1] | Observation (inhibition level, Table S7) [1] | % Inhibition ([1]; 100 µM) [%] | IC50 [1] [µM] | IC50 (α-glucosidase) [µM]
5 | COc1ccc2[nH]c(C(=O)N/N=C/c3nccs3)cc2c1 [4a, (E)-5-Methoxy-N’-(thiazol-2-ylmethylene)-1H-indole-2-carbohydrazide] | 41.141 | 33.393 | 31.75 ± 8.42 | Low activity | Low inhibition |  |  | 
6 | COc1ccc2[nH]c(C(=O)N/N=C/c3ccc(O)c([N+](=O)[O-])c3)cc2c1 [4d, (E)-N’-(4-Hydroxy-3-nitrobenzylidene)-5-methoxy-1H-indole-2-carbohydrazide] | 37.425 | 28.540 | 27.97 ± 7.96 | Low activity | Low inhibition |  |  | 
7 | COc1ccc(/C=N/NC(=O)c2cc3cc(OC)ccc3[nH]2)c(O)c1 [4e, (E)-N’-(2-Hydroxy-4-methoxybenzylidene)-5-methoxy-1H-indole-2-carbohydrazide] | 87.826 | 81.926 | 82.21 ± 4.47 | High activity | Good inhibition |  | 16.42 ± 0.08 | 
8 | COc1ccc2[nH]c(C(=O)N/N=C/c3ccccc3F)cc2c1 [4f, (E)-N’-(2-Fluorobenzylidene)-5-methoxy-1H-indole-2-carbohydrazide] | 54.885 | 51.513 | 50.65 ± 3.86 | Moderate activity | Moderate inhibition |  |  | 
9 | COc1ccc2[nH]c(C(=O)N/N=C/c3ccc([N+](=O)[O-])cc3)cc2c1 [4h, (E)-5-Methoxy-N’-(4-nitrobenzylidene)-1H-indole-2-carbohydrazide] | 90.888 | 88.949 | 89.11 ± 1.39 | High activity | High inhibition |  | 14.5 ± 0.76 | 
10 | COc1ccc2[nH]c(C(=O)N/N=C/c3ccc4ccccc4c3)cc2c1 [4i, (E)-5-Methoxy-N’-(naphthalen-2-ylmethylene)-1H-indole-2-carbohydrazide] | 84.106 | 84.052 | 82.73 ± 1.90 | High activity | Good inhibition |  | 19.5 ± 1.37 | 
11 | O=C(N/N=C/c1cc(O)c(O)c(O)c1)c1cc2ccccc2[nH]1 [(E)-N’-(3,4,5-Trihydroxybenzylidene)-1H-indole-2-carbohydrazide] |  |  |  |  |  |  |  | 2.3
12 | C[C@H]1O[C@H](O[C@H]2[C@H](O)[C@@H](O)[C@@H](O[C@H]3[C@H](O)[C@@H](O)C(O)O[C@@H]3CO)O[C@@H]2CO)[C@H](O)[C@@H](O)[C@@H]1N[C@H]1C=C(CO)[C@@H](O)[C@H](O)[C@H]1O (stereo partly shown) [Acarbose, acarbose, reference compound] | 84.457 | 85.609 | 84.66 ± 0.71 |  |  |  |  | 
